Measured values: patent publication US20250136578A1 (Kolm Therapeutics Inc., priority 2023, published 2025)

Tests used:
AR / CBP ternary complex = AR / CBP ternary complex (Homo sapiens, UniProt P10275+Q92793); assay: Ternary complex formation assay (sandwich ELISA, AR capture, CBP antibody detection) in VCaP cell lysates; type: cell-based; conditions: treated 1.5 hours, rabbit CBP or p300 antibody detection, average, read-out: Average Ternary Complex
Procedure, shortened: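 VCaP cells in 5% charcoal-stripped FBS were cultured ≥3 days and then given bifunctional compound for 1.5 h. Lysates went onto AR-antibody-coated plates. Bound CBP (or p300) was detected with a rabbit antibody plus HRP anti-rabbit, using QuantaRed chemifluorescence (ex 570/em 585) read immediately, at 5 min and at 15 min.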

VCaP cells = assay: VCaP growth inhibition assay (CTG); type: cell-based; conditions: Homo sapiens, 216 h, 30 pM R1881, 9 days
Procedure, shortened: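 VCaP cells in phenol red-free DMEM with 5% charcoal-stripped serum were stimulated with 30 pM R1881 (final) and treated with compound from 100 nM to 10 fM final (1:5 dilutions) for 9 days at 37 °C. Viability was read by CellTiter-Glo luminescence, and IC50 came from 4-parameter logistic fits.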

AR / CBP ternary complex, sequence (P10275 whole entry): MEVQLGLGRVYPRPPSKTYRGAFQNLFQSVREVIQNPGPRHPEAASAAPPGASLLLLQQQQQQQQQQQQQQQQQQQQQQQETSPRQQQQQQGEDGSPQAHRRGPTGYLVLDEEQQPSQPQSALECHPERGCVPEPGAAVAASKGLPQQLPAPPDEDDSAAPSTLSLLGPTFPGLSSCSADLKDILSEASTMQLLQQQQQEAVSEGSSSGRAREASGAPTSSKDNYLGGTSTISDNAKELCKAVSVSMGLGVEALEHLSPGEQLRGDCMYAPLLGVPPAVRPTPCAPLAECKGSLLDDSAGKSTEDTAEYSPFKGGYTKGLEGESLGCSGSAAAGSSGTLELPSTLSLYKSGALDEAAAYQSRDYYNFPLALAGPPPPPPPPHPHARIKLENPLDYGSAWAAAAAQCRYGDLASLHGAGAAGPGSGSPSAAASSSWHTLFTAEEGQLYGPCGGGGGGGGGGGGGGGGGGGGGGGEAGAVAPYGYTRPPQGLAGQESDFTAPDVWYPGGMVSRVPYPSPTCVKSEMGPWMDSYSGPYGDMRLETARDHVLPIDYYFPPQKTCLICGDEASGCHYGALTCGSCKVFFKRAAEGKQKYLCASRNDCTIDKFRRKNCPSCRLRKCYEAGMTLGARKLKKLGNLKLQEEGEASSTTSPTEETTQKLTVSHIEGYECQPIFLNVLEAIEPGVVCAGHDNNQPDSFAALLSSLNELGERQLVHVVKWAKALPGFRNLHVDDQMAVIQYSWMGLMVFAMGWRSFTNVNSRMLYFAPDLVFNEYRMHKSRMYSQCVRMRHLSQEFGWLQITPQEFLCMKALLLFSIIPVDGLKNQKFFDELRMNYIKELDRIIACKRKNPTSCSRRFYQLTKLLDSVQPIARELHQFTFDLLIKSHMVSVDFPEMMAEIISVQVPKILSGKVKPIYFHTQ
AR / CBP ternary complex, sequence (Q92793 2-2442): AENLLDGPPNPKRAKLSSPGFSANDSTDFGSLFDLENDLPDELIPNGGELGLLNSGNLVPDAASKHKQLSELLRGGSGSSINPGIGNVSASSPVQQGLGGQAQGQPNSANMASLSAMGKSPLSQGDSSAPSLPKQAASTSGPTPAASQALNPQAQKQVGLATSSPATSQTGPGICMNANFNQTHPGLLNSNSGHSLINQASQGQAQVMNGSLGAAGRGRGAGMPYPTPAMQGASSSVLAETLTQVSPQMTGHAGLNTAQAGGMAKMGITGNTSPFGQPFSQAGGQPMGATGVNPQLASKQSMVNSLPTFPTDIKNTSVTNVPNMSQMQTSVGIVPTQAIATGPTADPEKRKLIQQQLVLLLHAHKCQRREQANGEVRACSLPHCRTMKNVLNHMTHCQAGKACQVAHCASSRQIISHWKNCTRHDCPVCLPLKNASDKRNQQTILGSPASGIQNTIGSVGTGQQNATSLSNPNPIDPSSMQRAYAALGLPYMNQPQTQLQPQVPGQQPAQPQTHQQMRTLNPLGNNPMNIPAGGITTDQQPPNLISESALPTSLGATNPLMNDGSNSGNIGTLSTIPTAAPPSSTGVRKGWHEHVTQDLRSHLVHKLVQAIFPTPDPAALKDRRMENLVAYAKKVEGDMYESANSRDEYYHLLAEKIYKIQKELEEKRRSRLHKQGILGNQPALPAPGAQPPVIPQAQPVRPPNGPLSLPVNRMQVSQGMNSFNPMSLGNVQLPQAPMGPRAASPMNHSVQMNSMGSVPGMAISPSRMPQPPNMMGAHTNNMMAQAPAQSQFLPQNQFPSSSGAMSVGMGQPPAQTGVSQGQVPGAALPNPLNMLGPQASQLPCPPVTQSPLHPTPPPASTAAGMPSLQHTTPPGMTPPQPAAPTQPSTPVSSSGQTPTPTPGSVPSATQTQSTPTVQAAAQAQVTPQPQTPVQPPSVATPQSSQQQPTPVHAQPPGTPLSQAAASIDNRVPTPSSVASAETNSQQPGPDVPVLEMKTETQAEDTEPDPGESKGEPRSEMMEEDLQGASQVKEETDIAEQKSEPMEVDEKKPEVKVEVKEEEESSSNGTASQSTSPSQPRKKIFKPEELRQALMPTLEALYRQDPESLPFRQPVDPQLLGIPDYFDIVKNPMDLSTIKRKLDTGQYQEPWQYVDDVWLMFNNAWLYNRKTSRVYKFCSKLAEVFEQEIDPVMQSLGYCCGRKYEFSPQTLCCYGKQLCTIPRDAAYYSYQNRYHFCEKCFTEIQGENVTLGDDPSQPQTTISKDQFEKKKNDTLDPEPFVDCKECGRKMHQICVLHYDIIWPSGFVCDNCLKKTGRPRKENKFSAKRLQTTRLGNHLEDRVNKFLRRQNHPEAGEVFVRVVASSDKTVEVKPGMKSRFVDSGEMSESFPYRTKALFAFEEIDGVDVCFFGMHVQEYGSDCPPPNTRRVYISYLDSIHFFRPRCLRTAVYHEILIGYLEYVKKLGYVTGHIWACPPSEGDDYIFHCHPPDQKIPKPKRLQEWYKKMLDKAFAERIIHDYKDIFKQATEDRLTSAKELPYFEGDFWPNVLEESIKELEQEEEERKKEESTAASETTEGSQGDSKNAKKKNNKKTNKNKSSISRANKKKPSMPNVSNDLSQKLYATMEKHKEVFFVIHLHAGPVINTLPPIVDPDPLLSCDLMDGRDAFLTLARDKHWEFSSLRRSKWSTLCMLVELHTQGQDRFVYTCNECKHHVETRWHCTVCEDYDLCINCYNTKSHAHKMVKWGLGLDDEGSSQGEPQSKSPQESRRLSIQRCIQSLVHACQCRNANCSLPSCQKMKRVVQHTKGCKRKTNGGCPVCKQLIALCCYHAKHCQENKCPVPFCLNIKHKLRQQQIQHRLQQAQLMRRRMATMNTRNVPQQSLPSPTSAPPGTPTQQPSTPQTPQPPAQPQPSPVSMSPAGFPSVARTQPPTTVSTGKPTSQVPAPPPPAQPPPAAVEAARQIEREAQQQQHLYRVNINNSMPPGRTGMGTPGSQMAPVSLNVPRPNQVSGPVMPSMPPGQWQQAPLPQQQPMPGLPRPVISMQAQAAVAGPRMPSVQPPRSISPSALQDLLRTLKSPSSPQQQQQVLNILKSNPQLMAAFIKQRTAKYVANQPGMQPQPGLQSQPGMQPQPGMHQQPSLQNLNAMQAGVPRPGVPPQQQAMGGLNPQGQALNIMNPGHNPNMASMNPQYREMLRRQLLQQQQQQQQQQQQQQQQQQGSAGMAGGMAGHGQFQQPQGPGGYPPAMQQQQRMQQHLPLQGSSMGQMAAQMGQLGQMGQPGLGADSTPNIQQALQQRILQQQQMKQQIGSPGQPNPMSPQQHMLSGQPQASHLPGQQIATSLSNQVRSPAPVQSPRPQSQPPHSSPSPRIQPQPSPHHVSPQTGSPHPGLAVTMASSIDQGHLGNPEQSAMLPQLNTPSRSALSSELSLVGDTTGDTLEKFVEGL

Structure (SMILES)	EC50 (AR / CBP ternary complex)	IC50 (VCaP cells)
CC(=O)N1CCc2c(c(N3CCCc4cc(-c5cnn(C)c5)c(C(F)F)cc43)nn2[C@H]2CC[C@@H](OC3CN(c4ccc(C(=O)N[C@H]5CC[C@H](Oc6ccc(C#N)c(Cl)c6)CC5)nn4)C3)CC2)C1 [Compound 223, 6-[3-[4-[5-acetyl-3-[7-(difluoromethyl)-6-(1-methylpyrazol-4-yl)-3,4-dihydro-2H-quinolin-1-yl]-6,7-dihydro-4H-pyrazolo[4,3-c]pyridin-1-yl]cyclohexoxy]azetidin-1-yl]-N-[4-(3-chloro-4-cyano-phenoxy)cyclohexyl]pyridazine-3-carboxamide]	< 1 nM	≤ 0.1 nM
CC(=O)N1CCc2c(c(N3CCCc4cc(-c5cnn(C)c5)c(C(F)F)cc43)nn2[C@H]2CC[C@H](OC3CN(c4ccc(C(=O)N[C@H]5CC[C@H](Oc6ccc(C#N)c(Cl)c6)CC5)nn4)C3)CC2)C1 [Compound 224, 6-[3-[4-[5-acetyl-3-[7-(difluoromethyl)-6-(1-methylpyrazol-4-yl)-3,4-dihydro-2H-quinolin-1-yl]-6,7-dihydro-4H-pyrazolo[4,3-c]pyridin-1-yl]cyclohexoxy]azetidin-1-yl]-N-[4-(3-chloro-4-cyanophenoxy)cyclohexyl]pyridazine-3-carboxamide]	< 1 nM	≤ 0.1 nM
CC(=O)N1CCc2c(c(N3CCCc4cc(-c5cnn(C)c5)c(C(F)F)cc43)nn2C2CCN(C3CC4(C3)CN(c3ccc(C(=O)N[C@H]5CC[C@H](Oc6ccc(C#N)c(Cl)c6)CC5)nn3)C4)CC2)C1 [Compound 229, 6-[6-[4-[5-acetyl-3-[7-(difluoromethyl)-6-(1-methylpyrazol-4-yl)-3,4-dihydro-2H-quinolin-1-yl]-6,7-dihydro-4H-pyrazolo[4,3-c]pyridin-1-yl]-1-piperidyl]-2-azaspiro[3.3]heptan-2-yl]-N-[4-(3-chloro-4-cyano-phenoxy)cyclohexyl]pyridazine-3-carboxamide]	< 1 nM	≤ 0.1 nM
COC(=O)N1c2ccc3c(nc(Cc4ccccc4)n3[C@H]3CCC[C@H](CN4CCN(c5ccc(C(=O)N[C@H]6CC[C@H](Oc7ccc(C#N)c(Cl)c7)CC6)nn5)CC4)C3)c2CC[C@@H]1C [Compound 232, methyl (7S)-2-benzyl-3-[(1S,3S)-3-[[4-[6-[[4-(3-chloro-4-cyano-phenoxy)cyclohexyl]carbamoyl]pyridazin-3-yl]piperazin-1-yl]methyl]cyclohexyl]-7-methyl-8,9-dihydro-7H-imidazo[4,5-f]quinoline-6-carboxylate]	1 to 10 nM	1 to 100 nM
CC(=O)N1CCc2c(c(N3CCCc4cc(-c5cnn(C)c5)c(C(F)F)cc43)nn2C2CCC3(CC2)CN(C2CN(c4ccc(C(=O)N[C@H]5CC[C@H](Oc6ccc(C#N)c(Cl)c6)CC5)nn4)C2)C3)C1 [Compound 237]	< 1 nM	≤ 0.1 nM

The next lines start with the values.

EC50 (AR / CBP ternary complex)	IC50 (VCaP cells)	Structure (SMILES)
< 1 nM	≤ 0.1 nM	CO[C@@H]1CN(c2ccc(C(=O)N[C@H]3CC[C@H](Oc4ccc(C#N)c(Cl)c4)CC3)nn2)CC[C@@H]1CN1CCC(n2nc(N3CCCc4cc(-c5cnn(C)c5)c(C(F)F)cc43)c3c2CCN(C(C)=O)C3)CC1 [Compound 219, 6-[4-[[4-[5-acetyl-3-[7-(difluoromethyl)-6-(1-methylpyrazol-4-yl)-3,4-dihydro-2H-quinolin-1-yl]-6,7-dihydro-4H-pyrazolo[4,3-c]pyridin-1-yl]-1-piperidyl]methyl]-3-methoxy-1-piperidyl]-N-[4-(3-chloro-4-cyano-phenoxy)cyclohexyl] pyridazine-3-carboxamide]
> 100 nM	1 to 100 nM	CC(=O)N1CCc2c(c(N3CCCc4cc(-c5cnn(C)c5)c(C(F)F)cc43)nn2C2CCN([C@H]3CCN(c4ccc(C(=O)N[C@H]5CC[C@H](Oc6ccc(C#N)c(Cl)c6)CC5)nn4)C3)CC2)C1 [Compound 221, 6-[(3S)-3-[4-[5-acetyl-3-[7-(difluoromethyl)-6-(1-methylpyrazol-4-yl)-3,4-dihydro-2H-quinolin-1-yl]-6,7-dihydro-4H-pyrazolo[4,3-c]pyridin-1-yl]-1-piperidyl]pyrrolidin-1-yl]-N-[4-(3-chloro-4-cyano-phenoxy)cyclohexyl]pyridazine-3-carboxamide]
< 1 nM	0.1 to 1 nM	CC(=O)N1CCc2c(c(N3CCCc4cc(-c5cnn(C)c5)c(C(F)F)cc43)nn2C2CCN([C@@H]3CCN(c4ccc(C(=O)N[C@H]5CC[C@H](Oc6ccc(C#N)c(Cl)c6)CC5)nn4)C3)CC2)C1 [Compound 222, 6-[(3R)-3-[4-[5-acetyl-3-[7-(difluoromethyl)-6-(1-methylpyrazol-4-yl)-3,4-dihydro-2H-quinolin-1-yl]-6,7-dihydro-4H-pyrazolo[4,3-c]pyridin-1-yl]-1-piperidyl]pyrrolidin-1-yl]-N-[4-(3-chloro-4-cyano-phenoxy)cyclohexyl] pyridazine-3-carboxamide]
< 1 nM	≤ 0.1 nM	CC(=O)N1CCc2c(c(N3CCCc4cc(-c5cnn(C)c5)c(C(F)F)cc43)nn2C2CCN(CC3CCN(c4ccc(C(=O)N[C@H]5CC[C@H](Oc6ccc(C#N)c(Cl)c6)CC5)nn4)CC3(C)C)CC2)C1 (some centres unmarked) [Compound 230, 6-[4-[[4-[5-acetyl-3-[7-(difluoromethyl)-6-(1-methylpyrazol-4-yl)-3,4-dihydro-2H-quinolin-1-yl]-6,7-dihydro-4H-pyrazolo[4,3-c]pyridin-1-yl]-1-piperidyl]methyl]-3,3-dimethyl-1-piperidyl]-N-[4-(3-chloro-4-cyano-phenoxy)cyclohexyl]pyridazine-3-carboxamide]
< 1 nM	≤ 0.1 nM	CC(=O)N1CCc2c(c(N3CCCc4cc(-c5cnn(C)c5)c(C(F)F)cc43)nn2C2CCN(CC3CCN(c4ccc(C(=O)N[C@H]5CC[C@H](Oc6ccc(C#N)c(Cl)c6)CC5)nn4)CC34CC4)CC2)C1 (some centres unmarked) [Compound 231, 6-[8-[[4-[5-acetyl-3-[7-(difluoromethyl)-6-(1-methylpyrazol-4-yl)-3,4-dihydro-2H-quinolin-1-yl]-6,7-dihydro-4H-pyrazolo[4,3-c]pyridin-1-yl]-1-piperidyl]methyl]-5-azaspiro[2.5]octan-5-yl]-N-[4-(3-chloro-4-cyano-phenoxy)cyclohexyl]pyridazine-3-carboxamide]
< 1 nM	≤ 0.1 nM	CC(=O)N1CCc2c(c(N3CCCc4cc(-c5cnn(C)c5)c(C(F)F)cc43)nn2C2CCN(C[C@@H]3CCN(c4ccc(C(=O)N[C@H]5CC[C@H](Oc6ccc(C#N)c(Cl)c6)CC5)nn4)C[C@@H]3C)CC2)C1 [Compound 233]
< 1 nM	≤ 0.1 nM	CC(=O)N1CCc2c(c(N3CCCc4cc(-c5cnn(C)c5)c(C(F)F)cc43)nn2C2CCN(C[C@H]3CCN(c4ccc(C(=O)N[C@H]5CC[C@H](Oc6ccc(C#N)c(Cl)c6)CC5)nn4)C[C@H]3C)CC2)C1 [Compound 234]
< 1 nM	≤ 0.1 nM	CC(=O)N1CCc2c(c(N3CCCc4cc(-c5cnn(C)c5)c(C(F)F)cc43)nn2C2CCC3(CC2)CN(C2CCN(c4ccc(C(=O)N[C@H]5CC[C@H](Oc6ccc(C#N)c(Cl)c6)CC5)nn4)CC2)C3)C1 [Compound 238, 6-[4-[7-[5-acetyl-3-[7-(difluoromethyl)-6-(1-methylpyrazol-4-yl)-3,4-dihydro-2H-quinolin-1-yl]-6,7-dihydro-4H-pyrazolo[4,3-c]pyridin-1-yl]-2-azaspiro[3.5]nonan-2-yl]-1-piperidyl]-N-[4-(3-chloro-4-cyano-phenoxy)cyclohexyl]pyridazine-3-carboxamide]
